# Reference: patent publication US12209142B2, “SARS-CoV-2 epitope-targeted peptide immunostimulants” (Institute for Systems Biology, priority 2020, dated 2025)
# “Also recorded” adds a separate entry of the source. Where a SMILES comes first, the peptide text is derived from it. Bridges are numbered along the chain shown (N, C = ends). Triazole bridges read from a SMILES are 1,4-linked. [ ]: non-standard residue; d: D form. The star is where a group is joined. Biotin = O=C1N[C@H]2[C@H](CS[C@H]2CCCCC(=O)*)N1; Lys(N3) = [N-]=[N+]=NCCCC[C@H](N)C(=O)O; PEG5 = NCCOCCOCCOCCOCCOCCC(=O)O; Pra = C#CC[C@H](N)C(=O)O
# Legend:
# [1] = test system: Escherichia coli (E. coli) cells; test: Whole-cell ELISA of biotinylated PCC binding; conditions: biotinylated PCC at 5 μM
# Description: (§1) Whole-cell ELISAs. Detection of the binding of biotinylated PCCs to bacterial surface was performed as follows. 108 bacteria from a culture grown overnight were used for each test. Bacteria were incubated with PBS containing 1% BSA (PBS-BSA) for 1 h at 37° C., washed once with PBS, and then incubated with 5 μM of the biotinylated PCC in PBS-BSA for 1 h at 37° C. After washing thrice with PBS to remove unbound PCCs, bacteria were incubated with Streptavidin-HRP (1:1000) for 1 h at 37° C. Bacteria were washed thoroughly and the TMB reagent was added until visible coloration was observed. The reaction was quenched using 2N H2SO4 and absorbance was measured at 450 nm.
# [2] = test system: MrkA-expressing K. pneumoniae cells; test: Whole-cell ELISA of biotinylated PCC binding
# [3] = test system: MrkA synthetic epitopes (SynEp 1-4); test: Epitope selectivity sandwich ELISA with immobilized SynEps; type: binding, Klebsiella pneumoniae; conditions: DNP-conjugated ligand at 500 nM, anti-DNP detection
# Description: The particular epitope target to which cy(LLFFF) (SEQ ID NO:5) binds was next identified. A sandwich ELISA was performed in which the biotinylated SynEps were immobilized. The lead ligand cy(LLFFF) (SEQ ID NO:5), conjugated to a 2,4-dinitrophenyl (DNP) moiety, was titrated at a 500 nM concentration, and anti-DNP was used as a detection antibody. […] A background level for this assay was established using a biotinylated 6-mer polyethylene glycol (biotin-PEG6). […] As the native epitope for SynEp1 has a GRAVY score of 1.01, while the native versions of other SynEps range between −0.9 and −0.28, the negative ELISA signals may arise from the relatively high hydrophobicity of SynEp 1 versus others. The blocking may also result from the reactivity of the cysteine residue in SynEp 1. […] (SEQ ID NO:2) in native MrkA.
# In vitro ELISA assays. ELISA assays for MrkA-binding and epitope selectivity were performed on clear NeutrAvidin Coated High Capacity Plates (ThermoFisher, 15507). The buffer used for all washes and to dissolve all compounds was TBST+0.1% BSA (TBS+0.05% Tween 20+0.1% BSA, pH 7.3) and, unless otherwise stated, steps were conducted at room temperature. Each wash involved a brief 20 s agitation, and all conjugation, blocking, and incubation steps were performed with gentle agitation over the entire stated time period. […]
# [4] = target: T1, full-length recombinant MrkA protein (Klebsiella pneumoniae, UniProt P12267); test: Sandwich ELISA of PCC binding to full-length MrkA; conditions: sandwich ELISA, biotinylated PCC immobilized
# T1 construct: purchased MyBiosource MBS1248970
# T1 sequence (P12267 23-202): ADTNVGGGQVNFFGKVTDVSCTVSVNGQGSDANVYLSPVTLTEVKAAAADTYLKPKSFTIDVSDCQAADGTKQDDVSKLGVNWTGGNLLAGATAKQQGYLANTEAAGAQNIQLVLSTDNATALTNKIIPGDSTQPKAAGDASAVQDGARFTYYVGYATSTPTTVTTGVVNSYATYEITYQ
# Description: The screen yielded 26 hits (Table 2) that were sequenced, scaled up, and tested for binding to full-length recombinant MrkA in solution by single-point sandwich Enzyme-linked immunoassays (ELISAs) (FIG. 8). HPraGly is present before X1 in each peptide and Az4 follows X5 in each peptide.
# An alanine scan was performed to establish which residues of cy(LLFFF) (SEQ ID NO:5) contribute most to MrkA binding. In this assay, a sandwich ELISA is used to quantify the affinity of several cy(LLFFF) (SEQ ID NO:5) analogues, in which one residue is substituted with an alanine, towards full-length MrkA protein. The ELISA results in FIG. 4 show lower signal for every alanine-substituted cy(LLFFF) (SEQ ID NO:5) analogue compared to unmodified cy(LLFFF) (SEQ ID NO:5), establishing that the native compound has the highest affinity. […] Thus, these two C-terminal phenylalanine residues (FIG. 3A, arrows in inset) play critical roles in MrkA binding, and are targets for modifications to improve binding. Another important detail of these alanine scan results is a strong dependence of MrkA binding on the residue position, independent of residue type. For example, cy(LLAFF) (SEQ ID NO:9) and cy(LLFFA) (SEQ ID NO:11) have very different binding affinities, despite having the same phenylalanine-to-alanine substitution.
# In vitro ELISA assays. ELISA assays for MrkA-binding and epitope selectivity were performed on clear NeutrAvidin Coated High Capacity Plates (ThermoFisher, 15507). The buffer used for all washes and to dissolve all compounds was TBST+0.1% BSA (TBS+0.05% Tween 20+0.1% BSA, pH 7.3) and, unless otherwise stated, steps were conducted at room temperature. Each wash involved a brief 20 s agitation, and all conjugation, blocking, and incubation steps were performed with gentle agitation over the entire stated time period. The general procedure for an ELISA assay was: wash 3×200 μL/well, conjugate with 2 μM of biotinylated compound for 2 h at room temperature (100 μL/well), wash 3×200 μL/well, blocked overnight in 5 wt % milk at 4° C., wash […] with wash buffer, incubate with titrated compound (e.g., MrkA or epitope) for 1 h, […], incubate with primary antibody […] for 1 h (100 μL/well), wash 3×200 μL/well, incubate with 1:2,000 anti-rabbit secondary antibody-horseradish peroxidase conjugate (Cell signaling Technologies, 7074S) for 1 h, 3×200 μL/well, develop with the Microwell Peroxidase Substrate System (2-C) (SeraCare, 5120-0047) using 100 μL/well for 1-40 minutes, and quench using 1 M H2SO4 (aq.) at 100 μL/well. For MrkA binding assays, biotinylated PCCs were conjugated to the well surface, recombinant MrkA with an N-terminal 6×His-SUMO-tag (MyBiosource, MBS1248970) was titrated at the desired concentration, and the primary antibody was His-tag antibody, pAb, Rabbit (Genscript, A00174) at a 1:5,000 dilution. For epitope selectivity assays, biotinylated SynEps were conjugated, DNP-conjugated AR-PCCs were titrated at a desired concentration, and the primary antibody was anti-DNP antibody produced in Rabbit (Sigma-Aldrich, D9656) at a 1:8,000 dilution. […] For binding tests in the context of mouse sera, the “titrated compound” described in the steps above was dispersed in a solution containing the desired concentration of mouse serum.
# [5] = test system: Salmonella typhimurium (S. typhimurium) cells; test: Whole-cell ELISA of biotinylated PCC binding; conditions: biotinylated PCC at 5 μM
# Description: as §1
# [6] = strain BAA 1705, PCC 5 μM or lower
compound,measurement,setting,value
CC(C)C[C@@H]1NC(=O)[C@@H](NC(=O)CCOCCOCCOCCOCCOCCNC(=O)CCCC[C@@H]2SC[C@@H]3NC(=O)N[C@@H]32)Cc2cn(nn2)CCCC[C@@H](C(N)=O)NC(=O)[C@H](Cc2ccccc2)NC(=O)[C@H](Cc2ccccc2)NC(=O)[C@H](Cc2ccccc2)NC(=O)[C@H](CC(C)C)NC1=O [cy(LLFFF)] ({Biotin-PEG5}-[Pra]LLFFF[Lys(N3)]-NH2; triazole 1-7; N-terminus and C-terminus assumed),"whole-cell ELISA signal, E. coli",[1],small absorbances; also recorded: only weak signals
same,"whole-cell ELISA signal, MrkA-knockout KPPR1",[2]; MrkA/B/C knockout KPPR1,ELISA intensities comparable to baseline
same,"whole-cell ELISA signal, K. pneumoniae BAA 1705 and BAA 2146",[2]; biotinylated PCC at 5 μM,high absorbance; also recorded: strong signal; also recorded: binds two strains of MrkA-expressing K. pneumoniae cells with excellent selectivity versus E. coli and S. typhimurium
same,"whole-cell ELISA signal at high PCC concentration, LB or G-CAA","[2]; strain BAA 1705, 50 μM PCC",strong and comparable ELISA signals
same,"whole-cell ELISA 450 nm absorbance, cells cultured in G-CAA (high MrkA)",[2]; [6],strong absorbances
same,"whole-cell ELISA 450 nm absorbance, cells cultured in LB (low MrkA)",[2]; [6],near-baseline absorbances
same,"whole-cell ELISA signal, wild type KPPR1","[2]; wild type KPPR1 (ATCC 43816), G-CAA media, 5 μM down to 5 nM",strong signals; also recorded: binds wild type MrkA-expressing KPPR1 cells
same,binding to synthetic epitopes (SynEp selectivity),[3],preferably bind synthetic epitope 2; also recorded: highest signals from SynEp 2; also recorded: selectively binds synthetic epitope 2 versus other targeted epitopes
same,EC50,[4],50 nM
same,"whole-cell ELISA signal, S. typhimurium",[5],small absorbances; also recorded: only weak signals
